From patent publication US7754736B2, “5-aminoindole derivatives as H3 inverse agonists” (Hoffmann-La Roche Inc., priority 2005, dated 2010)
Where a name gives a salt, the structure may show the parent alone.

Each compound was assayed against T1, histamine 3 receptor (H3R) (Homo sapiens, UniProt Q9Y5N1) (assay: Competition binding assay with 3H-(R)α-methylhistamine on membranes of the human HR3-CHO cell line). Details: competition with 3H(R)α-Methylhistamine (1 nM), Ki calculated from IC50 by Cheng-Prusoff equation.
T1 construct: expressed in transfected cells; host or cells: CHO cells
T1 sequence (Q9Y5N1 whole entry): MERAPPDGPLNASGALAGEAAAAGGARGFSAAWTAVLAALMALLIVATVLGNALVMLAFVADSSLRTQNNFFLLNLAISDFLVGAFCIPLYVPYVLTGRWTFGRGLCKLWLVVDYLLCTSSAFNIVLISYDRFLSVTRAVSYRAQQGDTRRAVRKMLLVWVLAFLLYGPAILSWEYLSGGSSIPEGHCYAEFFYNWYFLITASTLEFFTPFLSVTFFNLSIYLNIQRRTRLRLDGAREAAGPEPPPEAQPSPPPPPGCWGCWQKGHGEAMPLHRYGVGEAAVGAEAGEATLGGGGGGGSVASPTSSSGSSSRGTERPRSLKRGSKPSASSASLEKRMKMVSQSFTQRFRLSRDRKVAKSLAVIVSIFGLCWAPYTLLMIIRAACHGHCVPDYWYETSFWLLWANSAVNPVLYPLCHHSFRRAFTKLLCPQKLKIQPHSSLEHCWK
Description: Binding Assay with ^3H-(R)α-methylhistamine Saturation binding experiments were performed using HR3-CHO membranes prepared as described in […]. Pharmacol. Exp. Therapeutics 307, 213-218. An appropriate amount of membrane (60 to 80 μg protein/well) was incubated with increasing concentrations of ^3H(R)α-Methylhistamine di-hydrochloride (0.10 to 10 nM). Non specific binding was determined using a 200 fold excess of cold (R)α-Methylhistamine dihydrobromide (500 nM final concentration). The incubation was carried out at room temperature (in deep-well plates shaking for three hours). The final volume in each well was 250 μl. The incubation was followed by rapid filtration on GF/B filters (pre-soaked with 100 μl of 0.5% PEI in Tris 50 mM shaking at 200 rpm for two hours). The filtration was made using a cell-harvester and the filter plates were then washed five times with ice cold washing buffer containing 0.5 M NaCl. After harvesting, the plates were dried at 55° C. for 60 min, then we added scintillation fluid (Microscint 40, 40 microl in each well) and the amount of radioactivity on the filter was determined in Packard top-counter after shaking the plates for two hours at 200 rpm at room temperature. Binding Buffer: 50 mM Tris-HCl pH 7.4 and 5 mM MgCl2×6H2O pH 7.4. Washing Buffer: 50 mM Tris-HCl pH 7.4 and 5 mM MgCl2×6H2O and 0.5 M NaCl pH 7.4. […] An appropriate amount of protein, e.g. approximately 500 cpm binding of RAMH at Kd, were incubated for 1 hour at room temperature in 250 μl final volume in 96-well plates in presence of ^3H(R)α-Methylhistamine (1 nM final concentration=Kd). Non-specific binding was determined using a 200 fold excess of cold (R)α-Methylhistamine dihydrobromide. All compounds were tested at a single concentration in duplicates. […] Ki's were calculated from IC50 based on Cheng-Prusoff equation (Cheng, Y, Prusoff, W H (1973) Biochem Pharmacol 22, 3099-3108).

Ki [nM] | Structure (SMILES)
47.5 | CC(C)N1CCC(Nc2ccc3[nH]c(C(=O)N4CCOCC4)cc3c2)CC1 [Example 3, [5-(1-isopropyl-piperidin-4-ylamino)-1H-indol-2-yl]-morpholin-4-yl-methanone]
66 | CC(C)N1CCC(Oc2ccc3[nH]c(C(=O)N(C)C(C)C)cc3c2)CC1 [Example 19, 5-(1-isopropyl-piperidin-4-yloxy)-1H-indole-2-carboxylic acid isopropyl-methyl-amide]
256 | CC(C)N1CCC(Nc2ccc3[nH]c(C(=O)N4CCOCC4)cc3c2)C1 (stereo not drawn) [Example 11, [5-(1-isopropyl-pyrrolidin-3-ylamino)-1H-indol-2-yl]-morpholin-4-yl-methanone bis-hydrochloride]
